Legend:
[1] = tested on: subjects with insomnia related to rheumatoid arthritis; assay: Arthritis Self-Efficacy Scale, clinical study of eszopiclone 3 mg vs placebo; type: in vivo, human; details: 3 mg nightly, visit 6 (EOS), ITT
Protocol: (§1) The study was aimed at observing the effect of eszopiclone 3 mg compared to placebo on daytime function in subjects with insomnia related to rheumatoid arthritis. The study was a multicenter, randomized, double-blind, placebo controlled, parallel group study.
A total of 153 subjects were randomized. Among them, 77 received 3 mg of eszopiclone (ESZ) nightly (at bedtime) for four weeks and 76 received matching placebo (PBO). […] In addition, subjects had insomnia symptoms including wake time after sleep onset (WASO) of ≧45 minutes, and total sleep time ≦6.5 hours. Diagnosis of rheumatoid arthritis predated the onset of insomnia symptoms.
(§2) During the double blind treatment, subjects were dosed with 3 mg eszopiclone (ESZ) or matching placebo (PBO) nightly (at bedtime) for four weeks. Data was analyzed with one-sided significance tests.

conscious dogs = assay: Dose escalation safety study, cardiovascular and respiratory parameters after acute intravenous administration; details: acute intravenous, 3, 5 and 12 mg/kg
Protocol: To establish the safety of eszopiclone, a dose escalation study was carried out. Cardiovascular and respiratory parameters were evaluated in conscious dogs following acute intravenous administration of (R)-, (S)- or racemic zopiclone at three doses (3, 5 and 12 mg/kg).

[2] = tested on: subjects with insomnia related to rheumatoid arthritis; assay: Subject Pain Severity Assessment (0 to 10 scale), clinical study of eszopiclone 3 mg vs placebo; type: in vivo, human
Protocol: as §1
A total of 153 subjects were randomized. Among them, 77 received 3 mg of eszopiclone (ESZ) nightly (at bedtime) for four weeks and 76 received matching placebo (PBO). The discontinuation rates were low, 5.2% in the ESZ group and 9.2% in the PBO group. The patient population was predominantly female (87%) and Caucasian (84%). Mean age was 52, with a range of 27-64. […] In addition, subjects had insomnia symptoms including wake time after sleep onset (WASO) of ≧45 minutes, and total sleep time ≦6.5 hours. Diagnosis of rheumatoid arthritis predated the onset of insomnia symptoms.
as §2

mice = assay: Antagonism of oxotremorine induced salivation; type: in vivo; details: doses up to 300 mg/kg, p.o.
Protocol: Eszopiclone was evaluated for antimuscarinic activity in vivo.

[3] = 3 mg nightly, visit 5 (Week 4), ITT, scale 0 to 10

## CN1CCN(C(=O)O[C@H]2c3nccnc3C(=O)N2c2ccc(Cl)cn2)CC1 [Eszopiclone, (+) 6-(5-chloropyrid-2-yl)-5-(4-methylpiperazin-1-yl)carbonyloxy-7-oxo-6,7-dihydro-5H-pyrrolo[3-4-b]pyrazine]
[1]
  Arthritis Self-Efficacy Scale Function, Observed Value, Maximum: 90.0
  Arthritis Self-Efficacy Scale Function, Observed Value, Mean (SD): 64.1 (20.5)
  Arthritis Self-Efficacy Scale Function, Observed Value, Median: 65.0
  Arthritis Self-Efficacy Scale Function, Observed Value, Minimum: 23.0
  Arthritis Self-Efficacy Scale Other Symptoms, Change from Baseline, 25th Percentile: −2.5
  Arthritis Self-Efficacy Scale Other Symptoms, Change from Baseline, 75th Percentile: 10.0
  Arthritis Self-Efficacy Scale Other Symptoms, Change from Baseline, Maximum: 39.0
  Arthritis Self-Efficacy Scale Other Symptoms, Change from Baseline, Mean (SD): 3.8 (10.7)
  Arthritis Self-Efficacy Scale Other Symptoms, Change from Baseline, Median: 3.0
  Arthritis Self-Efficacy Scale Other Symptoms, Change from Baseline, Minimum: −24.0
  Arthritis Self-Efficacy Scale Other Symptoms, Observed Value, 25th Percentile: 31.0
  Arthritis Self-Efficacy Scale Other Symptoms, Observed Value, 75th Percentile: 51.0
  Arthritis Self-Efficacy Scale Other Symptoms, Observed Value, Maximum: 59.0
  Arthritis Self-Efficacy Scale Other Symptoms, Observed Value, Mean (SD): 40.6 (12.6)
  Arthritis Self-Efficacy Scale Other Symptoms, Observed Value, Median: 41.5
  Arthritis Self-Efficacy Scale Other Symptoms, Observed Value, Minimum: 8.0
  Arthritis Self-Efficacy Scale Overall, Change from Baseline, 25th Percentile: −3.0
  Arthritis Self-Efficacy Scale Overall, Change from Baseline, 75th Percentile: 32.0
  Arthritis Self-Efficacy Scale Overall, Change from Baseline, Maximum: 84.0
  Arthritis Self-Efficacy Scale Overall, Change from Baseline, Mean (SD): 14.0 (30.5)
  Arthritis Self-Efficacy Scale Overall, Change from Baseline, Median: 12.5
  Arthritis Self-Efficacy Scale Overall, Change from Baseline, Minimum: −89.0
  Arthritis Self-Efficacy Scale Overall, Observed Value, 25th Percentile: 111.0
  Arthritis Self-Efficacy Scale Overall, Observed Value, 75th Percentile: 163.0
  Arthritis Self-Efficacy Scale Overall, Observed Value, Maximum: 193.0
  Arthritis Self-Efficacy Scale Overall, Observed Value, Mean (SD): 134.5 (35.9)
  Arthritis Self-Efficacy Scale Overall, Observed Value, Median: 133.0
  Arthritis Self-Efficacy Scale Overall, Observed Value, Minimum: 50.0
  Arthritis Self-Efficacy Scale Pain and Other Symptoms, Change from Baseline, 25th Percentile: −5.0
  Arthritis Self-Efficacy Scale Pain and Other Symptoms, Change from Baseline, 75th Percentile: 17.0
  Arthritis Self-Efficacy Scale Pain and Other Symptoms, Change from Baseline, Maximum: 52.7
  Arthritis Self-Efficacy Scale Pain and Other Symptoms, Change from Baseline, Mean (SD): 7.0 (18.5)
  Arthritis Self-Efficacy Scale Pain and Other Symptoms, Change from Baseline, Median: 7.5
  Arthritis Self-Efficacy Scale Pain and Other Symptoms, Change from Baseline, Minimum: −44.0
  Arthritis Self-Efficacy Scale Pain and Other Symptoms, Observed Value, 25th Percentile: 55.0
  Arthritis Self-Efficacy Scale Pain and Other Symptoms, Observed Value, 75th Percentile: 88.0
  Arthritis Self-Efficacy Scale Pain and Other Symptoms, Observed Value, Maximum: 107.0
  Arthritis Self-Efficacy Scale Pain and Other Symptoms, Observed Value, Mean (SD): 70.0 (21.0)
  Arthritis Self-Efficacy Scale Pain and Other Symptoms, Observed Value, Median: 71.0
  Arthritis Self-Efficacy Scale Pain and Other Symptoms, Observed Value, Minimum: 27.0
  Arthritis Self-Efficacy Scale Pain, Change from Baseline, 25th Percentile: −4.0
  Arthritis Self-Efficacy Scale Pain, Change from Baseline, 75th Percentile: 8.0
  Arthritis Self-Efficacy Scale Pain, Change from Baseline, Maximum: 35.0
  Arthritis Self-Efficacy Scale Pain, Change from Baseline, Mean (SD): 2.7 (10.5)
  Arthritis Self-Efficacy Scale Pain, Change from Baseline, Median: 2.0
  Arthritis Self-Efficacy Scale Pain, Change from Baseline, Minimum: −20.0
  Arthritis Self-Efficacy Scale Pain, Observed Value, 25th Percentile: 22.0
  Arthritis Self-Efficacy Scale Pain, Observed Value, 75th Percentile: 37.0
  Arthritis Self-Efficacy Scale Pain, Observed Value, Maximum: 49.0
  Arthritis Self-Efficacy Scale Pain, Observed Value, Mean (SD): 29.2 (9.8)
  Arthritis Self-Efficacy Scale Pain, Observed Value, Median: 30.0
  Arthritis Self-Efficacy Scale Pain, Observed Value, Minimum: 9.0
[1]; ANCOVA
  Arthritis Self-Efficacy Scale Function, Change from Baseline, Least Squares Means (SE) [2]: 6.2 (1.6)
  Arthritis Self-Efficacy Scale Other Symptoms, Change from Baseline, Least Squares Means (SE) [2]: 3.3 (1.1)
  Arthritis Self-Efficacy Scale Overall, Change from Baseline, Least Squares Means (SE) [2]: 12.4 (2.9)
  Arthritis Self-Efficacy Scale Pain and Other Symptoms, Change from Baseline, Least Squares Means (SE) [2]: 6.1 (1.8)
  Arthritis Self-Efficacy Scale Pain, Change from Baseline, Least Squares Means (SE) [2]: 2.4 (0.9)
Conscious dogs
  Blood gases and blood chemistries (pH, pCO2, pO2, hematocrit, and lactate): remained unaffected
  cardiotoxicity by electrocardiogram (ECG): No evidence of cardiotoxicity
  effect on blood pressure: dose dependent, transient decreases
  effect on heart rate: compensatory increase
[2]; 3 mg nightly vs placebo
  effect on change from baseline to the end of study in the Subject Pain Severity Assessment: significant effect
[2]; 3 mg nightly, visit 5 (Week 4), ITT, ANCOVA
  Subject Pain Severity Assessment, Change from Baseline, Least Squares Means (SE) [2]: −0.5 (0.2)
[2]; [3]
  Subject Pain Severity Assessment, Change from Baseline, 25th Percentile: −2.0
  Subject Pain Severity Assessment, Change from Baseline, 75th Percentile: 0.5
  Subject Pain Severity Assessment, Change from Baseline, Maximum: 7.0
  Subject Pain Severity Assessment, Change from Baseline, Mean (SD): −0.5 (2.6)
  Subject Pain Severity Assessment, Change from Baseline, Median: −1.0
  Subject Pain Severity Assessment, Change from Baseline, Minimum: −7.0
  Subject Pain Severity Assessment, Observed Value, 25th Percentile: 2.5
  Subject Pain Severity Assessment, Observed Value, 75th Percentile: 7.0
  Subject Pain Severity Assessment, Observed Value, Maximum: 10.0
  Subject Pain Severity Assessment, Observed Value, Mean (SD): 4.6 (2.7)
  Subject Pain Severity Assessment, Observed Value, Median: 5.0
  Subject Pain Severity Assessment, Observed Value, Minimum: 0.0
mice
  antagonism of oxotremorine induced salivation: neither (R)-, (S)-, nor racemic zopiclone significantly antagonized
